Measured values from US12157741B2, “Macrocyclic inhibitors of DYRK1A” (DANA-FARBER CANCER INSTITUTE, INC., priority 2018, dated 2024).
Like-named read-outs stand apart in the source and are kept apart here.

Columns and labels:
Assay type in all cases: binding
various enzymes [1] = biological target: various enzymes (Homo sapiens, UniProt P00519, F317L); conditions: compound 1 uM
Experimental: (§1) Ambit profiling was conducted in accordance with the manufacturer's instructions.

various enzymes [2] = biological target: various enzymes (Homo sapiens, UniProt P00519, M351T)
Experimental: as §1

various enzymes [3] = biological target: various enzymes (Homo sapiens, UniProt P07949, V804L)
Experimental: as §1

various enzymes [4] = biological target: various enzymes (Homo sapiens, UniProt P08581, Y1235D)
Experimental: as §1

various enzymes [5] = biological target: various enzymes (Homo sapiens, UniProt P15056); conditions: compound 1 uM
Experimental: as §1

various enzymes [6] = biological target: various enzymes (Homo sapiens, UniProt P15735); conditions: compound 1 uM
Experimental: as §1

various enzymes [7] = biological target: various enzymes (Homo sapiens, UniProt P16591); conditions: compound 1 uM
Experimental: as §1

various enzymes [8] = biological target: various enzymes (Homo sapiens, UniProt P22455); conditions: compound 1 uM
Experimental: as §1

various enzymes [9] = biological target: various enzymes (Homo sapiens, UniProt P35968); conditions: compound 1 uM
Experimental: as §1

various enzymes [10] = biological target: various enzymes (Homo sapiens, UniProt P42336, E542K)
Experimental: as §1

various enzymes [11] = biological target: various enzymes (Homo sapiens, UniProt Q05655); conditions: compound 1 uM
Experimental: as §1

various enzymes [12] = biological target: various enzymes (Homo sapiens, UniProt Q07912); conditions: compound 1 uM
Experimental: as §1

various enzymes [13] = biological target: various enzymes (Homo sapiens, UniProt Q13177); conditions: compound 1 uM
Experimental: as §1

various enzymes [14] = biological target: T1, various enzymes (Homo sapiens, UniProt Q13873); conditions: compound 1 uM
T1 sequence (Q13873 27-1038): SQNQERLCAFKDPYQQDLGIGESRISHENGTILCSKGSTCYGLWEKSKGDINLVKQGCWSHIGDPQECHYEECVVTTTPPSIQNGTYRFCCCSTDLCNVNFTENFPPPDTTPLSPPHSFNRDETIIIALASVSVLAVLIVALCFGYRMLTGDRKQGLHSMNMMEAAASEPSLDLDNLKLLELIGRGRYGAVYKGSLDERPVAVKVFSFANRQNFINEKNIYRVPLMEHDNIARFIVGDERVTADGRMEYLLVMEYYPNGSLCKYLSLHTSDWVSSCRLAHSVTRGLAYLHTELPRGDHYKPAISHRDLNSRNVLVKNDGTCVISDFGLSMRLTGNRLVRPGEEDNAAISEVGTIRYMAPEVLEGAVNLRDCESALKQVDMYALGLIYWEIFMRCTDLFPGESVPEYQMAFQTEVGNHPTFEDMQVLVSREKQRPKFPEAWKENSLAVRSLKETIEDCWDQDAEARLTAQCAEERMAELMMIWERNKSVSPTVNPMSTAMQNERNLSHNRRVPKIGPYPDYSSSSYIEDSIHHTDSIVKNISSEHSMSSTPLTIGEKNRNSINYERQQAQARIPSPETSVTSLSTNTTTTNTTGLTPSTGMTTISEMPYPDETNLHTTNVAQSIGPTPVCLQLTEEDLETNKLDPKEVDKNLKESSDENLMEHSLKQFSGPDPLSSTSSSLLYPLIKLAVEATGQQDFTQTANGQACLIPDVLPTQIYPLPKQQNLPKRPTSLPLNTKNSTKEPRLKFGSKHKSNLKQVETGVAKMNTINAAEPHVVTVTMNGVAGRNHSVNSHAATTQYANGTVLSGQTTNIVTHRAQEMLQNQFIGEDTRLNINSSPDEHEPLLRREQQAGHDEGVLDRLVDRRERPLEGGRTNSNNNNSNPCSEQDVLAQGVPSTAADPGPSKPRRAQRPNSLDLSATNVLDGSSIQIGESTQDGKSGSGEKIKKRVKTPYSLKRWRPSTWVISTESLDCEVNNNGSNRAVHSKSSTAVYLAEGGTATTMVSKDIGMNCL
Experimental: as §1

various enzymes [15] = biological target: various enzymes (Homo sapiens, UniProt Q16584); conditions: compound 1 uM
Experimental: as §1

various enzymes [16] = biological target: various enzymes (Homo sapiens, UniProt Q6DT37); conditions: compound 1 uM
Experimental: as §1

various enzymes [17] = biological target: various enzymes (Homo sapiens, UniProt Q8NFD2); conditions: compound 1 uM
Experimental: as §1

various enzymes [18] = biological target: various enzymes (Homo sapiens, UniProt Q92772); conditions: compound 1 uM
Experimental: as §1

various enzymes [19] = biological target: various enzymes (Homo sapiens, UniProt Q9BYT3); conditions: compound 1 uM
Experimental: as §1

various enzymes [20] = biological target: various enzymes (Homo sapiens, UniProt Q9H4B4); conditions: compound 1 uM
Experimental: as §1

various enzymes [21] = biological target: T2, various enzymes (Homo sapiens, UniProt Q9NWZ3); conditions: compound 1 uM
T2 sequence (Q9NWZ3 1-460): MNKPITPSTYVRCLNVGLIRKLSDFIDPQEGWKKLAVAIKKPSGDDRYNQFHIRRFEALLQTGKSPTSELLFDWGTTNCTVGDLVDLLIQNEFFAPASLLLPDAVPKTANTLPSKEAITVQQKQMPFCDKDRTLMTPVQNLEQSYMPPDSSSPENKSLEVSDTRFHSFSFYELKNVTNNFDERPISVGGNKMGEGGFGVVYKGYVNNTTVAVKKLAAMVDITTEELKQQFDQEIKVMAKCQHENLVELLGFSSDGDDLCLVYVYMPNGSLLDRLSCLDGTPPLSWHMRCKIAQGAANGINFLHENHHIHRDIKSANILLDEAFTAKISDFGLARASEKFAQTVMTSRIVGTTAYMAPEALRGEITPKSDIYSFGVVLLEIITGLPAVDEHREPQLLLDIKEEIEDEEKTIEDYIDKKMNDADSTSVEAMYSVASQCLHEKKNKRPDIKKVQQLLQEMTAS
Experimental: as §1

various enzymes [22] = biological target: various enzymes (Homo sapiens, UniProt Q9P2K8, S808G)
Experimental: as §1

various enzymes [23] = biological target: various enzymes (Homo sapiens, UniProt Q9UM73); conditions: compound 1 uM
Experimental: as §1

various enzymes [24] = biological target: various enzymes (Homo sapiens, UniProt Q9Y243); conditions: compound 1 uM
Experimental: as §1

Chain of various enzymes (Homo sapiens, UniProt P15056) (P15056 whole entry): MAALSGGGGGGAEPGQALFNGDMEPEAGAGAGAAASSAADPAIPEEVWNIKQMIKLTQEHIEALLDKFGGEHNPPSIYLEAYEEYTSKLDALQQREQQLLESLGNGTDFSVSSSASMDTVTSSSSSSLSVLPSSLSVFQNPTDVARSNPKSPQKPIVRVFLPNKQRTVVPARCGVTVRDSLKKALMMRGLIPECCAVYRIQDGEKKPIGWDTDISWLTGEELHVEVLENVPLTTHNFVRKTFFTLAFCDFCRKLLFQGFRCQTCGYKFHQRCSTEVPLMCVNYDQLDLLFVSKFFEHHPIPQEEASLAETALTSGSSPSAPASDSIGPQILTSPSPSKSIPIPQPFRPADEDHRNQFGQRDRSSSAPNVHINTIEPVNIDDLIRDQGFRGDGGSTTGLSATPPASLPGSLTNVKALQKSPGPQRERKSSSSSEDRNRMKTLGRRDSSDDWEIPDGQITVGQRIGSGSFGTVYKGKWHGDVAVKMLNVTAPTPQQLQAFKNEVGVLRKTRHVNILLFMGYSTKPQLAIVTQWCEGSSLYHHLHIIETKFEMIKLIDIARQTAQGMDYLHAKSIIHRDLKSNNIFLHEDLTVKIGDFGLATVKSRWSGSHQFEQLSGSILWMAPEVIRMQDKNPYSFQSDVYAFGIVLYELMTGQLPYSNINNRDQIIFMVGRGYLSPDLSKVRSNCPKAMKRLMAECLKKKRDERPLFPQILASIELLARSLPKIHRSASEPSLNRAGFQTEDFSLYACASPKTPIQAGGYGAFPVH
Chain of various enzymes (Homo sapiens, UniProt Q16584) (Q16584 whole entry): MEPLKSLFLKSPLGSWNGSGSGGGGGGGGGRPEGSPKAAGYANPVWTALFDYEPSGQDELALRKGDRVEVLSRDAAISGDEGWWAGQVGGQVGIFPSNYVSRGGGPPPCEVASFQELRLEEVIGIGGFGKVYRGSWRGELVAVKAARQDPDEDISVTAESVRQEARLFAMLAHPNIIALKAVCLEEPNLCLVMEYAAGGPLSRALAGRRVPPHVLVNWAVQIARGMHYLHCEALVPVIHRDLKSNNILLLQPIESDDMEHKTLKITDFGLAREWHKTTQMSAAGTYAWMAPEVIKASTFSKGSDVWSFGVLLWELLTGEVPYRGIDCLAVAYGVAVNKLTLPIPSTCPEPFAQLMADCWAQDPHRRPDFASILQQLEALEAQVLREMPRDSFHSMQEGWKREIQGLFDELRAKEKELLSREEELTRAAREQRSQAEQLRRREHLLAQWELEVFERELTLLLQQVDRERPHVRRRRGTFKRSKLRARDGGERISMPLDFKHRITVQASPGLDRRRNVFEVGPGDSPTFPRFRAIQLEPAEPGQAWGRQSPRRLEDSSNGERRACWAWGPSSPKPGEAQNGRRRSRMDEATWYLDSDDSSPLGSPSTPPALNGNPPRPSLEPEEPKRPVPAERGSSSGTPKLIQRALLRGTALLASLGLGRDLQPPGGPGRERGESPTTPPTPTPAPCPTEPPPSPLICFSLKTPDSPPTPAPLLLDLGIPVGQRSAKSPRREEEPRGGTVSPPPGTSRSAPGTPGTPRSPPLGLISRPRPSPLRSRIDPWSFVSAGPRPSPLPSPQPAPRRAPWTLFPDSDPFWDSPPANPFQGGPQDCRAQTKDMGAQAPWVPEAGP
Chain of various enzymes (Homo sapiens, UniProt Q9Y243) (Q9Y243 whole entry): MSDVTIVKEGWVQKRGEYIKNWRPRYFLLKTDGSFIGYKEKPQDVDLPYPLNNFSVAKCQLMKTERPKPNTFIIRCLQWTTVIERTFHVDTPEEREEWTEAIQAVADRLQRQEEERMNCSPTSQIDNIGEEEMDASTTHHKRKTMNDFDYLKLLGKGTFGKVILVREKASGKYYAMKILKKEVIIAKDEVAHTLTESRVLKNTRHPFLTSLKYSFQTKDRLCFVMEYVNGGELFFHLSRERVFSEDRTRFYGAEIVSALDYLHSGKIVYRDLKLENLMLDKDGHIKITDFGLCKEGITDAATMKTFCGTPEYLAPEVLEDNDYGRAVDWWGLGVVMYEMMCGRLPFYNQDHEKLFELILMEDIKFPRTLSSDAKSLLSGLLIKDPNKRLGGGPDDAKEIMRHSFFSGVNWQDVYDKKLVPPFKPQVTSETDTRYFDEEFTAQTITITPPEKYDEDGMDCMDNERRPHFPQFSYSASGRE
Chain of various enzymes (Homo sapiens, UniProt P35968) (P35968 20-1356): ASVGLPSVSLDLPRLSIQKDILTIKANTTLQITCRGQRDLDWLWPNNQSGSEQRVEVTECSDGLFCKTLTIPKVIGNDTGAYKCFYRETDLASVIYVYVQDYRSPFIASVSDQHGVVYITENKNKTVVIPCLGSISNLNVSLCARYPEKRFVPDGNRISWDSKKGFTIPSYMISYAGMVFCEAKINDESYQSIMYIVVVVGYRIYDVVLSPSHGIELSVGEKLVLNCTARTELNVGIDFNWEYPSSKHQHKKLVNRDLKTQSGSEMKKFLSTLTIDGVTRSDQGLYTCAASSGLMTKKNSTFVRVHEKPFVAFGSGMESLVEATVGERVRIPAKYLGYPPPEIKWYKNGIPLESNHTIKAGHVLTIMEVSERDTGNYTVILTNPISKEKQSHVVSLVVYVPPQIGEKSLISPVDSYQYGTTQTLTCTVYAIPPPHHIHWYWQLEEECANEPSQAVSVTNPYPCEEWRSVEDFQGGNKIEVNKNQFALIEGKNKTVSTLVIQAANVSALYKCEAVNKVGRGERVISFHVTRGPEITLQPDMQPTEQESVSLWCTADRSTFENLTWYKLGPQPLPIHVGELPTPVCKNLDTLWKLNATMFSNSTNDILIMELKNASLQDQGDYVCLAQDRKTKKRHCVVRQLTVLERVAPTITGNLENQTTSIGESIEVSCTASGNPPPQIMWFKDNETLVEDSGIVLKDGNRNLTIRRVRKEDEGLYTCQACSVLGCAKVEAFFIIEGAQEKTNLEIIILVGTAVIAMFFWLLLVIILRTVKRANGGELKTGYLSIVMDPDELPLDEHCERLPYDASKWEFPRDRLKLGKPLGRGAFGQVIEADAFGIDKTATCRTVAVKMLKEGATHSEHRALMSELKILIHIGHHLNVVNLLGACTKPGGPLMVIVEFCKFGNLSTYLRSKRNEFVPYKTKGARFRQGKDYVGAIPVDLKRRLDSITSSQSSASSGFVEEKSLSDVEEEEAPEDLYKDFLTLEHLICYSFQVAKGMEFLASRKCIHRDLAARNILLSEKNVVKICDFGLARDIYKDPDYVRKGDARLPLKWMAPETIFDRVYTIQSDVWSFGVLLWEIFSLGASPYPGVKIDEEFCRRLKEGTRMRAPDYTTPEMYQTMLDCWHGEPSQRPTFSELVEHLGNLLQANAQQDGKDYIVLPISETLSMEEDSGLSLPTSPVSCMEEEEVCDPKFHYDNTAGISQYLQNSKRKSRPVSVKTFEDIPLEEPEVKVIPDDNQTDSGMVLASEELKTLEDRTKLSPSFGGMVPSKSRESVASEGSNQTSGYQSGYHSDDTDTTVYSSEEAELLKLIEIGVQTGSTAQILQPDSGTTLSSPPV
Chain of various enzymes (Homo sapiens, UniProt Q9P2K8, S808G) (Q9P2K8 whole entry S808G): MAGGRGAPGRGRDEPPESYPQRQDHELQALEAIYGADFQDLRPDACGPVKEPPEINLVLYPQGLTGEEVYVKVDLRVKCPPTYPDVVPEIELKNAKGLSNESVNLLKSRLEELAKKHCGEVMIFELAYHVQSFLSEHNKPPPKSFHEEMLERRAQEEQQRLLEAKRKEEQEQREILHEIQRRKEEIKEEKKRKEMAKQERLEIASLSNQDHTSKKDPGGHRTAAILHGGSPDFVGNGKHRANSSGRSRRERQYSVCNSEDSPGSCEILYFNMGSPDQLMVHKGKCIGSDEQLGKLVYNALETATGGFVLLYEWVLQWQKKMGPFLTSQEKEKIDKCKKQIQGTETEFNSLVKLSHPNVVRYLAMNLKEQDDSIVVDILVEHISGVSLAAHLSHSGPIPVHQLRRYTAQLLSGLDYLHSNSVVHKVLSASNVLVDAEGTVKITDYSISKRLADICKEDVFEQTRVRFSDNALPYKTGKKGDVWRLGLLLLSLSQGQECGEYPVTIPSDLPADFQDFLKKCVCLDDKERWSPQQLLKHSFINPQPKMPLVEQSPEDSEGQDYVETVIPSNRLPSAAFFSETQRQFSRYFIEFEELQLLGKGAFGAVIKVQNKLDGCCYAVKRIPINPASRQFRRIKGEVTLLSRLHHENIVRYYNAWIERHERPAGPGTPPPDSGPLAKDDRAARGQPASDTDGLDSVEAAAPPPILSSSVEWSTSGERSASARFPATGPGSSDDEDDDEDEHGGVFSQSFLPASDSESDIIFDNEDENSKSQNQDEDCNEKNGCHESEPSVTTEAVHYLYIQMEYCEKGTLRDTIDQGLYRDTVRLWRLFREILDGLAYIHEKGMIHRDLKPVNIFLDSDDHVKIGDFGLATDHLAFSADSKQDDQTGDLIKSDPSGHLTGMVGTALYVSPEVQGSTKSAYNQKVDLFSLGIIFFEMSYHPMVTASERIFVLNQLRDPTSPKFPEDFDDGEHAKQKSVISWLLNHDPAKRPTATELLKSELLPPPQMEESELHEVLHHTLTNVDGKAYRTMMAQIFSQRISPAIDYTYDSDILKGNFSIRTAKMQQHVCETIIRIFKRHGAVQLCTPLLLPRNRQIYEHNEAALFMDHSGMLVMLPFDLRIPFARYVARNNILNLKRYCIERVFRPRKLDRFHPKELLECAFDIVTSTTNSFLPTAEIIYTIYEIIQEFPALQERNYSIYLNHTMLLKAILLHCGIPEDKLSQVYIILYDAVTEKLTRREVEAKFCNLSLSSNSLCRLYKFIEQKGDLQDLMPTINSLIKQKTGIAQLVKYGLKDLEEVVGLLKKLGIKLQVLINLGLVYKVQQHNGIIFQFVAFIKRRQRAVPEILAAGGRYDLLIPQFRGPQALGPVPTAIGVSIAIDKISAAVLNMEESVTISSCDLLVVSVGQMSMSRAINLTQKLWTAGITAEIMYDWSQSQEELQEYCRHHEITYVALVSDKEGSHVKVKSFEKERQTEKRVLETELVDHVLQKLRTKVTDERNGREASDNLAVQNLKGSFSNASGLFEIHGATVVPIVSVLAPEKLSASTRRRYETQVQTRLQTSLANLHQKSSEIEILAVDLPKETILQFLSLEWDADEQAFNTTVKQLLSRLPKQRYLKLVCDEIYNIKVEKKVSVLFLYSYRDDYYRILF

SMILES	Ambit profiling: ABL1(F317L)-nonphosphorylated (various enzymes [1])	Ambit profiling: ABL1(F317L)-phosphorylated (various enzymes [1])	Ambit profiling: BRAF (various enzymes [5])	Ambit profiling: PHKG2 (various enzymes [6])	Ambit profiling: FER (various enzymes [7])	Ambit profiling: FGFR4 (various enzymes [8])	Ambit profiling: VEGFR2 (various enzymes [9])	Ambit profiling: PRKCD (various enzymes [11])	Ambit profiling: TNK2 (various enzymes [12])	Ambit profiling: PAK2 (various enzymes [13])	Ambit profiling: BMPR2 (various enzymes [14])	Ambit profiling: MLK3 (various enzymes [15])	Ambit profiling: DMPK2 (various enzymes [16])	Ambit profiling: ANKK1 (various enzymes [17])	Ambit profiling: CDKL2 (various enzymes [18])	Ambit profiling: STK33 (various enzymes [19])	Ambit profiling: PLK3 (various enzymes [20])	Ambit profiling: IRAK4 (various enzymes [21])	Ambit profiling: ALK (various enzymes [23])	Ambit profiling: AKT3 (various enzymes [24])	further results
CC(C)N1Cc2nn(C)cc2-c2cnc3[nH]cc(c3c2)-c2cn(nc2C(F)(F)F)CCCC1=O [Compound 45, (Z)-5-isopropyl-31-methyl-13-(trifluoromethyl)-11H,21H,31H-5-aza-2(3,5)-pyrrolo[2,3-b]pyridina-1(4,1),3(4,3)-dipyrazolacyclononaphan-6-one]	55	25	100	44	49	85	2	71	11	74	78	28	53	100	14	71	95	39	18	100	Ambit profiling: ABL1(M351T)-phosphorylated (various enzymes [2]; compound 1 uM): 19; Ambit profiling: RET(V804L) (various enzymes [3]; compound 1 uM): 10; Ambit profiling: MET(Y1235D) (various enzymes [4]; compound 1 uM): 4.8; Ambit profiling: PIK3CA(E542K) (various enzymes [10]; compound 1 uM): 98; Ambit profiling: GCN2(Kin.Dom.2, S808G) (various enzymes [22]; compound 1 uM): 100
COc1c2c(nn1C)CN(C(C)C)C(=O)CCCn1cc(c(C(F)(F)F)n1)-c1c[nH]c3ncc-2cc13 [Compound 50, (Z)-5-isopropyl-35-methoxy-31-methyl-13-(trifluoromethyl)-11H,21H,31H-5-aza-2(3,5)-pyrrolo[2,3-b]pyridina-1(4,1),3(4,3)-dipyrazolacyclononaphan-6-one]	35	2.5	87	53	10	79	0.8	43	1.9	100	89	11	47	94	20	23	77	20	21	100	Ambit profiling: ABL1(M351T)-phosphorylated (various enzymes [2]): 4.1; Ambit profiling: RET(V804L) (various enzymes [3]): 18; Ambit profiling: MET(Y1235D) (various enzymes [4]): 1.4; Ambit profiling: PIK3CA(E542K) (various enzymes [10]): 85; Ambit profiling: GCN2(Kin.Dom.2, S808G) (various enzymes [22]): 100
